Test results as given in the NIST ThermoML archive (doi:10.1016/j.jct.2005.05.007).

How the values were obtained:
[1] = xn = mol fraction of the nth substance listed; conditions: 298.15 K, 101 kPa, Liquid, Vibrating tube method
[2] = 298.15 K; 101.33 kPa; Liquid; Vibrating tube method
[3] = refractive index (Na D-line) (dimensionless); conditions: 298.15 K; 101.33 kPa; Liquid; Standard Abbe refractometry

CCC#N [propanenitrile] + CCCO
[1]
Conditions | mass density [kg/m3]
x2 = 0.0465 | 777.6
x2 = 0.0955 | 778.5
x2 = 0.143 | 779.4
x2 = 0.1882 | 780.3
x2 = 0.2387 | 781.4
x2 = 0.2837 | 782.4
x2 = 0.3347 | 783.6
x2 = 0.3775 | 784.6
x2 = 0.4341 | 786
x2 = 0.4827 | 787.2
x2 = 0.5841 | 789.7
x2 = 0.6371 | 791
x2 = 0.7389 | 793.5
x2 = 0.7795 | 794.5
x2 = 0.8329 | 795.8
x2 = 0.8919 | 797.2
x2 = 0.9355 | 798.2

CCC#N [propanenitrile] + CO
[1]
Conditions | mass density [kg/m3]
x2 = 0.0822 | 777.3
x2 = 0.1672 | 777.9
x2 = 0.2338 | 778.4
x2 = 0.2992 | 779
x2 = 0.3634 | 779.7
x2 = 0.4258 | 780.3
x2 = 0.4879 | 781
x2 = 0.5403 | 781.6
x2 = 0.5844 | 782.1
x2 = 0.6226 | 782.6
x2 = 0.6752 | 783.3
x2 = 0.7183 | 783.8
x2 = 0.763 | 784.4
x2 = 0.7996 | 784.8
x2 = 0.8366 | 785.3
x2 = 0.8743 | 785.8
x2 = 0.9088 | 786.1
x2 = 0.9384 | 786.3
x2 = 0.9696 | 786.5

CCCCCO [pentan-1-ol]
Conditions | mass density [kg/m3] | refractive index
[2] | 810.8 | –
[3] | – | 1.4078

CCCO [propan-1-ol]
Conditions | mass density [kg/m3] | refractive index
[2] | 799.6 | –
[3] | – | 1.3834

CCC#N [propanenitrile] + CC(C)O
[1]
Conditions | mass density [kg/m3]
x2 = 0.0579 | 776.1
x2 = 0.0955 | 775.8
x2 = 0.1396 | 775.5
x2 = 0.183 | 775.4
x2 = 0.2321 | 775.3
x2 = 0.2775 | 775.4
x2 = 0.3274 | 775.5
x2 = 0.3784 | 775.6
x2 = 0.4249 | 775.8
x2 = 0.4768 | 776
x2 = 0.5385 | 776.4
x2 = 0.5752 | 776.6
x2 = 0.6307 | 777
x2 = 0.6763 | 777.4
x2 = 0.7286 | 777.9
x2 = 0.7788 | 778.4
x2 = 0.8384 | 779.1
x2 = 0.8929 | 779.7
x2 = 0.9416 | 780.2

CCC#N [propanenitrile] + CCO
[1]
Conditions | mass density [kg/m3]
x2 = 0.0627 | 776.8
x2 = 0.129 | 777
x2 = 0.1754 | 777.2
x2 = 0.2486 | 777.6
x2 = 0.2872 | 777.9
x2 = 0.3419 | 778.4
x2 = 0.3978 | 778.9
x2 = 0.4563 | 779.5
x2 = 0.5001 | 780
x2 = 0.5577 | 780.6
x2 = 0.6025 | 781.1
x2 = 0.6433 | 781.6
x2 = 0.6925 | 782.2
x2 = 0.7416 | 782.7
x2 = 0.7823 | 783.2
x2 = 0.8218 | 783.6
x2 = 0.8737 | 784.2
x2 = 0.9146 | 784.6
x2 = 0.9565 | 784.9

CCC#N [propanenitrile] + CCCCO
[1]
Conditions | mass density [kg/m3]
x2 = 0.0391 | 778
x2 = 0.1177 | 780.4
x2 = 0.1625 | 781.8
x2 = 0.1984 | 782.9
x2 = 0.2481 | 784.4
x2 = 0.3398 | 787.4
x2 = 0.385 | 788.7
x2 = 0.4364 | 790.2
x2 = 0.4813 | 791.6
x2 = 0.539 | 793.3
x2 = 0.5821 | 794.6
x2 = 0.6363 | 796.2
x2 = 0.7036 | 798.1
x2 = 0.7441 | 799.2
x2 = 0.8103 | 801
x2 = 0.8795 | 802.8
x2 = 0.9334 | 804.1

CCCCO [butan-1-ol]
Conditions | mass density [kg/m3] | refractive index
[2] | 805.8 | –
[3] | – | 1.397

CO [methanol]
Conditions | mass density [kg/m3] | refractive index
[2] | 786.6 | –
[3] | – | 1.3265

CC(C)O [propan-2-ol]
Conditions | mass density [kg/m3] | refractive index
[2] | 780.9 | –
[3] | – | 1.3748

CCC#N [propanenitrile]
Conditions | mass density [kg/m3] | refractive index
[2] | 776.8 | –
[3] | – | 1.3633

CCO [ethanol]
Conditions | mass density [kg/m3] | refractive index
[2] | 785.1 | –
[3] | – | 1.3593

CCC#N [propanenitrile] + CCCCCO
[1]
Conditions | mass density [kg/m3]
x2 = 0.0353 | 778.3
x2 = 0.0649 | 779.6
x2 = 0.1026 | 781.1
x2 = 0.1379 | 782.6
x2 = 0.1786 | 784.2
x2 = 0.2164 | 785.7
x2 = 0.2613 | 787.5
x2 = 0.3031 | 789.1
x2 = 0.3464 | 790.7
x2 = 0.3917 | 792.4
x2 = 0.4396 | 794.1
x2 = 0.489 | 795.8
x2 = 0.5444 | 797.7
x2 = 0.6012 | 799.5
x2 = 0.6547 | 801.2
x2 = 0.7186 | 803.2
x2 = 0.7788 | 804.9
x2 = 0.8488 | 806.9
x2 = 0.9162 | 808.7
